Values belong to the compound of their own block, whether it stands above or below them.
Molecular target: T1, CBL-B (Homo sapiens, UniProt Q13191)
T1 construct: GST
Assay: CBL-B TR-FRET IC50 screening (E1/E2 ubiquitination, Biotin-Ubiquitin, Anti GST-Tb donor / Streptavidin-d2 acceptor)
Format: biochemical
Conditions: CBL-B 10 nM final; 11-point titration from 100 uM; binned A-F; read-out: CBL-B TR-FRET activity IC50

T1 sequence (Q13191 whole entry): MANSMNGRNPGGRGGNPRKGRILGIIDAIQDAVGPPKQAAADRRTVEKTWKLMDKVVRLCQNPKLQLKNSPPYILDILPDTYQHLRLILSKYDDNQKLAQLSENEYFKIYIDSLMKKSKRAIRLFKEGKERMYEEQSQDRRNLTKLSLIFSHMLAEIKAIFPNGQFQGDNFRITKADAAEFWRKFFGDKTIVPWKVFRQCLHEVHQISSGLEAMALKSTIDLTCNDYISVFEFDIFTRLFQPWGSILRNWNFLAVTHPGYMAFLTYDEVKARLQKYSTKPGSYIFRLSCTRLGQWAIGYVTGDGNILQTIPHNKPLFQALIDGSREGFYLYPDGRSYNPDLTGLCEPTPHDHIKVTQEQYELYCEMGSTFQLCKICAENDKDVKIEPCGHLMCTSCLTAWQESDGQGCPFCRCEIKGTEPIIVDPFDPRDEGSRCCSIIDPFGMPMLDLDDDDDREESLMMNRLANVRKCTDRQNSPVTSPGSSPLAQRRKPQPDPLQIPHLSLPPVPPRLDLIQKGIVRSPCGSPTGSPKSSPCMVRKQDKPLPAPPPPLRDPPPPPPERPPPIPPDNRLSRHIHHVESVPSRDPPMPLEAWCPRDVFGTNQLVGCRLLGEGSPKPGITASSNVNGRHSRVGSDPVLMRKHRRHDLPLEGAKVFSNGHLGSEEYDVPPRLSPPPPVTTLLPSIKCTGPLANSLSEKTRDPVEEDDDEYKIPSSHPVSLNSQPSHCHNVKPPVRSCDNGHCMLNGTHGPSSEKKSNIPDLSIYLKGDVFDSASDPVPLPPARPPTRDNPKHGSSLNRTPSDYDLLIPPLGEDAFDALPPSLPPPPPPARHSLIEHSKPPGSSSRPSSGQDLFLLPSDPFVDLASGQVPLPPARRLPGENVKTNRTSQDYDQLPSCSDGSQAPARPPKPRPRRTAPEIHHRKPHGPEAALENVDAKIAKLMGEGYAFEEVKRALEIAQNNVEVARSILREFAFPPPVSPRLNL

Structure (SMILES): C[C@H]1CCCN(Cc2cc(C(F)(F)F)c3cn(-c4cccc([C@H](c5nncs5)C5CCC5)c4)c(=O)n3c2)C1 (single isomer, unassigned) [Compound 202]
IC50: < 100 nM

Structure (SMILES): C[C@H]1CCCN(Cc2cc(C(F)(F)F)c3cn(-c4cccc([C@@H](c5nncs5)C5CCC5)c4)c(=O)n3c2)C1 (single isomer, unassigned) [Compound 203]
IC50: 301 to 1000 nM

Structure (SMILES): C[C@@H]1CN(Cc2cc(C(F)(F)F)c3cn(-c4cccc([C@]5(Cc6nncn6C)C[C@H](C#N)C5)c4)c(=O)n3c2)CCC1(F)F (single isomer, unassigned) [Compound 204]
IC50: < 100 nM

Structure (SMILES): C[C@H]1CN(Cc2cc(C(F)(F)F)c3cn(-c4cccc([C@]5(Cc6nncn6C)C[C@H](C#N)C5)c4)c(=O)n3c2)CCC1(F)F (single isomer, unassigned) [Compound 205]
IC50: < 100 nM

Structure (SMILES): C[C@@H]1CN(Cc2cc(C(F)(F)F)c3cn(-c4cccc([C@]5(c6nncn6C)C[C@@H](C)C5)c4)c(=O)n3c2)CCO1 (single isomer, unassigned) [Compound 213]
IC50: < 100 nM

Structure (SMILES): [2H]C([2H])([2H])n1cnnc1[C@]1(c2cccc(-n3cc4c(C(F)(F)F)cc(CN5CCC[C@H](C)C5)cn4c3=O)c2)C[C@@H](C)C1 (single isomer, unassigned) [Compound 214]
IC50: < 100 nM

Structure (SMILES): Cn1cnnc1[C@]1(c2cccc(-n3cc4c(C(F)(F)F)cc(CN5CCC6(CC6)C5)cn4c3=O)c2)C[C@@H](C)C1 (single isomer, unassigned) [Compound 215]
IC50: < 100 nM

Structure (SMILES): Cn1cnnc1[C@]1(c2cccc(-n3cc4c(C(F)(F)F)cc(CN5CCC(C)(F)CC5)cn4c3=O)c2)C[C@@H](C)C1 (single isomer, unassigned) [Compound 217]
IC50: < 100 nM

Structure (SMILES): Cn1cnnc1[C@]1(c2cccc(-n3cc4c(C(F)(F)F)cc(CN5CCC6(CC6)C5)cn4c3=O)c2)C[C@H](C)C1 (single isomer, unassigned) [Compound 222]
IC50: < 100 nM

Structure (SMILES): C[C@H]1CCCN(Cc2cc(C(F)(F)F)c3cn(-c4cc([C@@H](c5nncn5C)C5CCC5)cc(C(F)(F)F)c4)c(=O)n3c2)C1 (single isomer, unassigned) [Compound 223]
IC50: < 100 nM

Structure (SMILES): C[C@H]1CCCN(Cc2cc(C(F)(F)F)c3cn(-c4cc([C@H](c5nncn5C)C5CCC5)cc(C(F)(F)F)c4)c(=O)n3c2)C1 (single isomer, unassigned) [Compound 224]
IC50: > 10000 nM

Structure (SMILES): Cn1cnnc1[C@]1(c2cccc(-n3cc4c(C(F)(F)F)cc(CN5CC[C@H](F)C5)cn4c3=O)c2)C[C@H](C)C1 (single isomer, unassigned) [Compound 226]
IC50: < 100 nM

Structure (SMILES): Cn1cnnc1[C@]1(c2cccc(-n3cc4c(C(F)(F)F)cc(CN5CCC(C)(F)CC5)cn4c3=O)c2)C[C@H](C)C1 (single isomer, unassigned) [Compound 227]
IC50: < 100 nM

Structure (SMILES): C[C@@H]1CN([C@H](C)c2cc(C(F)(F)F)c3cn(-c4cccc([C@@H](c5nncn5C)C5CCC5)c4)c(=O)n3c2)CCO1 (single isomer, unassigned) [Compound 231]
IC50: 3000 to 10000 nM

Structure (SMILES): C[C@@H]1CN([C@@H](C)c2cc(C(F)(F)F)c3cn(-c4cccc([C@@H](c5nncn5C)C5CCC5)c4)c(=O)n3c2)CCO1 (single isomer, unassigned) [Compound 232]
IC50: 301 to 1000 nM

Structure (SMILES): C[C@@H]1CN([C@H](C)c2cc(C(F)(F)F)c3cn(-c4cccc([C@H](c5nncn5C)C5CCC5)c4)c(=O)n3c2)CCO1 (single isomer, unassigned) [Compound 233]
IC50: < 100 nM

Structure (SMILES): C[C@@H]1CN([C@@H](C)c2cc(C(F)(F)F)c3cn(-c4cccc([C@H](c5nncn5C)C5CCC5)c4)c(=O)n3c2)CCO1 (single isomer, unassigned) [Compound 234]
IC50: < 100 nM

Structure (SMILES): COC1CCN(Cc2cc(C(F)(F)F)c3cn(-c4cccc([C@@H](c5nncn5C)C5CCC5)c4)c(=O)n3c2)CC1 (single isomer, unassigned) [Compound 235]
IC50: 1000 to 3000 nM

Structure (SMILES): Cn1cnnc1[C@]1(c2cccc(-n3cc4c(C(F)(F)F)cc(CN5CC6(CC6)C5)cn4c3=O)c2)C[C@H](C)C1 (single isomer, unassigned) [Compound 236]
IC50: < 100 nM

Structure (SMILES): Cn1cnnc1[C@]1(c2cccc(-n3cc4c(C(F)(F)F)cc(CN5CCC(F)CC5)cn4c3=O)c2)C[C@H](C)C1 (single isomer, unassigned) [Compound 237]
IC50: < 100 nM

The remaining lines, values ahead:

IC50: > 10000 nM
Structure (SMILES): C[C@H]1CCCN(Cc2cc(C(F)(F)F)c3cn(-c4cc(F)cc([C@@H](c5nncn5C)C5CCC5)c4)c(=O)n3c2)C1 (single isomer, unassigned) [Compound 242]

IC50: < 100 nM
Structure (SMILES): C[C@H]1CCCN(Cc2cc(C(F)(F)F)c3cn(-c4cc(F)cc([C@H](c5nncn5C)C5CCC5)c4)c(=O)n3c2)C1 (single isomer, unassigned) [Compound 243]

IC50: > 10000 nM
Structure (SMILES): C[C@H]1CCCN([C@@H](c2cc(C(F)(F)F)c3cn(-c4cccc([C@@H](c5nncn5C)C5CCC5)c4)c(=O)n3c2)C(F)(F)F)C1 (single isomer, unassigned) [Compound 256]

IC50: > 10000 nM
Structure (SMILES): C[C@H]1CCCN([C@H](c2cc(C(F)(F)F)c3cn(-c4cccc([C@@H](c5nncn5C)C5CCC5)c4)c(=O)n3c2)C(F)(F)F)C1 (single isomer, unassigned) [Compound 257]

IC50: < 100 nM
Structure (SMILES): CO[C@H]1CCCCN(Cc2cc(C(F)(F)F)c3cn(-c4cccc([C@H](c5nncn5C)C5CCC5)c4)c(=O)n3c2)C1 (single isomer, unassigned) [Compound 261]

IC50: < 100 nM
Structure (SMILES): CO[C@@H]1CCCCN(Cc2cc(C(F)(F)F)c3cn(-c4cccc([C@H](c5nncn5C)C5CCC5)c4)c(=O)n3c2)C1 (single isomer, unassigned) [Compound 262]

IC50: < 100 nM
Structure (SMILES): CO[C@H]1CCCN(Cc2cc(C(F)(F)F)c3cn(-c4cccc([C@H](c5nncn5C)C5CCC5)c4)c(=O)n3c2)CC1 (single isomer, unassigned) [Compound 263]

IC50: < 100 nM
Structure (SMILES): CO[C@@H]1CCCN(Cc2cc(C(F)(F)F)c3cn(-c4cccc([C@H](c5nncn5C)C5CCC5)c4)c(=O)n3c2)CC1 (single isomer, unassigned) [Compound 264]

IC50: < 100 nM
Structure (SMILES): Cn1cnnc1[C@@H](c1cccc(-n2cc3c(C(F)(F)F)cc(CN4CCC[C@H](C(F)(F)F)C4)cn3c2=O)c1)C1CCC1 (single isomer, unassigned) [Compound 271]

IC50: < 100 nM
Structure (SMILES): Cn1cnnc1[C@@H](c1cccc(-n2cc3c(C(F)(F)F)cc(CN4CCC[C@@H](C(F)(F)F)C4)cn3c2=O)c1)C1CCC1 (single isomer, unassigned) [Compound 272]

IC50: < 100 nM
Structure (SMILES): C[C@H]1CCCCN(Cc2cc(C(F)(F)F)c3cn(-c4cccc([C@H](c5nncn5C)C5CCC5)c4)c(=O)n3c2)C1 (single isomer, unassigned) [Compound 273]

IC50: < 100 nM
Structure (SMILES): C[C@@H]1CCCCN(Cc2cc(C(F)(F)F)c3cn(-c4cccc([C@H](c5nncn5C)C5CCC5)c4)c(=O)n3c2)C1 (single isomer, unassigned) [Compound 274]

IC50: > 10000 nM
Structure (SMILES): Cc1scnc1[C@H](c1cccc(-n2cc3c(C(F)(F)F)cc(CN4CCC[C@H](C)C4)cn3c2=O)c1)C1CCC1 (single isomer, unassigned) [Compound 282]

IC50: > 10000 nM
Structure (SMILES): Cc1scnc1[C@@H](c1cccc(-n2cc3c(C(F)(F)F)cc(CN4CCC[C@H](C)C4)cn3c2=O)c1)C1CCC1 (single isomer, unassigned) [Compound 283]

IC50: 100 to 300 nM
Structure (SMILES): Cn1cnnc1[C@@H](c1cccc(-n2cc3c(C(F)(F)F)cc(CN4CC[C@@H](C(F)(F)F)C4)cn3c2=O)c1)C1CCC1 (single isomer, unassigned) [Compound 285]

IC50: < 100 nM
Structure (SMILES): C[C@H]1CCCN(Cc2cc(C(F)(F)F)c3cn(-c4cc(C#N)cc([C@@H](c5nncn5C)C5CCC5)c4)c(=O)n3c2)C1 (single isomer, unassigned) [Compound 288]

IC50: > 10000 nM
Structure (SMILES): C[C@H]1CCCN(Cc2cc(C(F)(F)F)c3cn(-c4cc(C#N)cc([C@H](c5nncn5C)C5CCC5)c4)c(=O)n3c2)C1 (single isomer, unassigned) [Compound 289]

IC50: 100 to 300 nM
Structure (SMILES): C[C@H]1CCCN(Cc2cc(C(F)(F)F)c3cn(-c4cccc([C@]5(c6nncs6)C[C@@H](C)C5)c4)c(=O)n3c2)C1 (single isomer, unassigned) [Compound 292]

IC50: 100 to 300 nM
Structure (SMILES): C[C@H]1CCCN(Cc2cc(C(F)(F)F)c3cn(-c4cccc([C@]5(c6nncs6)C[C@H](C)C5)c4)c(=O)n3c2)C1 (single isomer, unassigned) [Compound 293]

IC50: 100 to 300 nM
Structure (SMILES): C[C@H]1CCCN(Cc2cc(C(F)(F)F)c3cn(-c4cccc([C@]5(c6nncn6C)C[C@H](O)C5)c4)c(=O)n3c2)C1 (single isomer, unassigned) [Compound 301]

IC50: 301 to 1000 nM
Structure (SMILES): Cc1conc1[C@H](c1cccc(-n2cc3c(C(F)(F)F)cc(CN4CCC[C@H](C)C4)cn3c2=O)c1)C1CCC1 (single isomer, unassigned) [Compound 302]

IC50: > 10000 nM
Structure (SMILES): Cc1conc1[C@@H](c1cccc(-n2cc3c(C(F)(F)F)cc(CN4CCC[C@H](C)C4)cn3c2=O)c1)C1CCC1 (single isomer, unassigned) [Compound 303]

IC50: > 10000 nM
Structure (SMILES): C[C@H]1CCCN(Cc2cc(C(F)(F)F)c3cn(-c4cccc([C@@H](c5nccs5)C5CCC5)c4)c(=O)n3c2)C1 (single isomer, unassigned) [Compound 305]

IC50: > 10000 nM
Structure (SMILES): C[C@H]1CCCN(Cc2cc(C(F)(F)F)c3cn(-c4cccc([C@H](c5nccs5)C5CCC5)c4)c(=O)n3c2)C1 (single isomer, unassigned) [Compound 306]

IC50: < 100 nM
Structure (SMILES): Cn1cnnc1[C@]1(c2cccc(-n3cc4c(C(F)(F)F)cc(CN5CCc6ncsc6C5)cn4c3=O)c2)C[C@H](C)C1 (single isomer, unassigned) [Compound 308]

IC50: 100 to 300 nM
Structure (SMILES): Cn1cnnc1[C@]1(c2cccc(-n3cc4c(C(F)(F)F)cc(CN5CCc6ncsc6C5)cn4c3=O)c2)C[C@@H](C)C1 (single isomer, unassigned) [Compound 309]

IC50: < 100 nM
Structure (SMILES): CO[C@H]1C[C@](c2cccc(-n3cc4c(C(F)(F)F)cc(CN5CCC[C@H](C)C5)cn4c3=O)c2)(c2nncn2C)C1 (single isomer, unassigned) [Compound 319]

IC50: > 10000 nM
Structure (SMILES): COCCn1cc(C)c([C@@H](c2cccc(-n3cc4c(C(F)(F)F)cc(CN5CCC[C@H](C)C5)cn4c3=O)c2)C2CCC2)n1 (single isomer, unassigned) [Compound 335]
